Where a name gives a salt, the structure may show the parent alone. Read-outs that look alike come from different tables or passages of the source. One block for each molecule: values may come before it.
Columns and labels:
Type in all cases: biochemical
11β-HSD2 [1] = target: T1, 11β-HSD2 (Homo sapiens, UniProt P80365); test: radiolabeled cortisol to cortisone conversion, HEK-293 lysate; conditions: for 11β-HSD2 activity (% of control): 20 µM, […] cortisol, […] NAD+, […]°C, […] min
T1 construct: gene HSD11B2; stably expressed in HEK-293 cells, cell lysate
T1 sequence (P80365 1-405): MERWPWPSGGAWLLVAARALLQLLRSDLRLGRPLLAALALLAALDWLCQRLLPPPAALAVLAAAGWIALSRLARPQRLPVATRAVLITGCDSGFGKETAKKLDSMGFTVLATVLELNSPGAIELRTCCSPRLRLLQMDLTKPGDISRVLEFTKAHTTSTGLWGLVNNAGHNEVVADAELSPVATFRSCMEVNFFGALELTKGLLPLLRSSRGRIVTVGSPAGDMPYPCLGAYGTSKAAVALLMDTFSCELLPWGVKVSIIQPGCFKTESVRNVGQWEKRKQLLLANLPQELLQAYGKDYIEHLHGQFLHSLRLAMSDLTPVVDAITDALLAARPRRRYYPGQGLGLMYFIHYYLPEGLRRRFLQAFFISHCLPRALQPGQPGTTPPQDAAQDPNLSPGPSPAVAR

11β-HSD1 [2] = target: T2, 11β-HSD1 (Homo sapiens, UniProt P28845); test: radiolabeled cortisone to cortisol conversion, HEK-293 lysate; conditions: for 11β-HSD1 activity (% of control): 20 µM, […] cortisone, […] NADPH, […]°C, […] min; for remaining activity at 20 µM: read-out: 11β-HSD1 activity (% of control)
T2 construct: gene HSD11B1; stably expressed in HEK-293 cells, cell lysate
Text: radiolabeled cortisone to cortisol conversion, HEK-293 lysate on 11β-HSD1

11β-HSD1 [3] = target: T2, 11β-HSD1; test: as above
11β-HSD2 [4] = target: T1, 11β-HSD2; test: radiolabeled cortisol to cortisone conversion, HEK-293 lysate
[5] = read-out: 11β-HSD2 activity (% of control)

T2 sequence (P28845 whole entry): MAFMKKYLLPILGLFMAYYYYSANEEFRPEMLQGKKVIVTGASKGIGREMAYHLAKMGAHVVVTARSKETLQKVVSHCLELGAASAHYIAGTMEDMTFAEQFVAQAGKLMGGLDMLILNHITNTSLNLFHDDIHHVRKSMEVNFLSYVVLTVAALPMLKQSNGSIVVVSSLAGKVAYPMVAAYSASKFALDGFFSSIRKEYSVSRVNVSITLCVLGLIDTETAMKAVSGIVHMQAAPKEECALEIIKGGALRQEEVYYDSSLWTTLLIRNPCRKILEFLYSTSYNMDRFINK

remaining activity at 20 µM (11β-HSD2 [1]; read-out: remaining activity at 20 μM): 80 ± 7%
Structure (SMILES): CCO[Si](CCCS)(OCC)OCC [3-mercaptopropyl triethoxysilane]

Structure (SMILES): CC[C@H]1CN2CCc3cc(OC)c(OC)cc3[C@@H]2C[C@@H]1C[C@H]1NCCc2cc(O)c(OC)cc21 [(−) Cephaeline dihydrochloride]
11β-HSD2 activity (% of control) (11β-HSD2 [1]): 74±2
11β-HSD1 activity (% of control) (11β-HSD1 [2]): 100±2

Structure (SMILES): CCO[Si](CCCSSSSCCC[Si](OCC)(OCC)OCC)(OCC)OCC [AB110873, bis[3-(triethoxysilyl)propyl] tetrasulfide]
11β-HSD1 activity (% of control) (11β-HSD1 [2]): 79±3

Structure (SMILES): C[C@]12CC[C@H](O)C[C@H]1CC[C@@H]1[C@@H]2CC[C@]2(C)[C@@H](C3=CC(=O)OC3)CC[C@]12O [Digitoxigenin]
11β-HSD2 activity (% of control) (11β-HSD2 [1]): 104±4
11β-HSD1 activity (% of control) (11β-HSD1 [2]): 36±2

Structure (SMILES): C[C@@H]1CC[C@@]2(OC1)O[C@H]1C[C@H]3[C@@H]4CC[C@H]5C[C@@H](O)CC[C@]5(C)[C@H]4CC(=O)[C@]3(C)[C@H]1[C@@H]2C [Hecogenin]
remaining activity at 20 µM (11β-HSD2 [1]; [5]): 82 ± 2%
remaining activity at 20 µM (11β-HSD1 [2]): 49 ± 9%

remaining activity at 20 µM (11β-HSD2 [1]; [5]): 140 ± 40%
IC50 (11β-HSD1 [3]): 3.8 ± 0.3 µM
Structure (SMILES): CC(C)OC(=O)C(C)(C)Oc1ccc(C(=O)c2ccc(Cl)cc2)cc1 [fenofibrate]

Structure (SMILES): CC[C@@H](C(=O)[C@@H](C)[C@@H](O)[C@H](C)CCc1ccc(C)c(O)c1C(=O)O)[C@H]1O[C@](CC)([C@H]2CC[C@](O)(CC)[C@H](C)O2)C[C@@H]1C [lasalocid]
IC50 (11β-HSD2 [4]): 14 ± 3 µM
remaining activity at 20 µM (11β-HSD1 [2]): 84 ± 3%

Source: publication PMC3464284, “Virtual Screening as a Strategy for the Identification of Xenobiotics Disrupting Corticosteroid Action” (PLoS ONE, 2012)
